Laboratory results as given in US4073938A, “19,20-Bis-nor-prostenoic acids as hypolipemic compounds” (Istituto Biochimico Italiano di Loredana Lorenzini S.a.s., priority 1974, dated 1978).
Where a name gives a salt, the structure may show the parent alone.

Tests used:
[1] = test system: ulcer induced by phenylbutazone; test: Anti-ulcerous activity, ulcer from phenylbutazone (9-hydroxy sodium salt); assay type: in vivo, Female rats of the Wistar stock
Procedure: (§1) Also in this case the anti-ulcerous activity is tested on an ulcer induced by aspirin and by phenylbutazone. In both cases lesions of various sizes are formed in the glandular section of the stomach.
Female rats of the Wistar stock weighing 170 ± 180 g are again involved. The animals are held in constant ambient conditions for at least 2 weeks before the start of the test. 24 hours before the start of the test the animals are made to fast, while they are allowed water at will.
Each test group consists of 10 animals. The substance in question is administered a first time 15 minutes before administration of phenylbutazone (200 mg/kg × 1 ml in 0.5% tragacanth gum solution orally), and a second time 21/2 hours after. The doses of the substance in question amount to 2.5, 10, 50, 100, 200 and respectively 400 mg/kg × 2 ml of 0.5% tragacanth gum solution, orally.
5 hours after the administration of phenylbutazone the animals are killed, the stomachs are extracted, fixed and with the aid of a stereomicroscope magnifying 8 times a point count evaluation is carried out. The lesions of the gastric mucosa are expressed in % of the stomach surface.

[2] = Deepness and rapidity test (untitled table 6); assay type: in vivo, Male Sprague-Dawley rats; conditions: 200 mg/kg endoperitoneal; for Rapidity ± E.S.: controls 3.4 ± 0.3; for Deepness (mm ± E.S.): controls 74.9 ± 6.2
Procedure: | Treatment with the dose of 200 mg/kg endoperitoneal, one or two hours | before sacrifice. Male Sprague-Dawley rats with an average weight of 150 | gr.

[3] = Triglycerides and cholesterol in rats on Nath diet, endoperitoneal or by mouth; assay type: in vivo, male Sprague-Dawley rats; conditions: 1 week
Procedure: Treatment with 25 mg/kg/die for 1 week on male Sprague-Dawley rats of 150

[4] = LD50 by mouth in the mouse; assay type: in vivo; conditions: in vivo, po
Procedure: (§2) a. LD50 by mouth in the mouse about 3000 mg/kg
(§3) 25 gr of XVI are dissolved in 400 ml of water with NaOH 15% to pH 9, filtered and lyophilized : 24 gr of sodium salt of XVI as a white solid are obtained, humidity (K. Fisher) 2.08%, no U.V. absorption, equivalent weight found 301.7, I.R. bands at 3400, 1765, 1565, 1460, 1420, 1378 cm^-1.
(§4) After 20 hours at 20°, the solvent is evaporated in vacuo, the residue is dissolved in 1300 ml of water treated with 120 ml of acetic acid, extracted with chloroform. After solvent evaporation, 65.1 gr of the compound XVIII are obtained, as an oil, I.R. bands at 3420, 3100, 1710 cm^-1. 35 gr of the compound XVIII are dissolved in 600 ml of water with NaOH to pH 9. The solution is filtered and lyophilized: 35.5 gr of sodium salt of 9-hydroxy-19,20-bis-nor-prostanoic acid are obtained, as white solid, humidity (K.Fisher) 1.73%, no U.V. absorption, equivalent weight found 320, I.R. bands at 3400, 3300, 1565, 1460, 1390 cm^-1, LD50 by mouth in mice about 3000 mg/kg.

[5] = test system: mouse; test: LD50 by mouth in the mouse; assay type: in vivo
Procedure: as §2, §3, §4

[6] = Coagulation test (Time of Quick, Time of Howel); assay type: in vivo, Male Sprague-Dawley rats; conditions: 200 mg/kg endoperitoneal, 2 hours before
Procedure: c. Coagulation test: minutes/10 ± E.S.
Coagulation test (Repetition): minutes/100 ± E.S.
(§5) Treatment with the dose of 200 mg/kg endoperitoneal, 2 hours before the test.
Male Sprague-Dawley rate 150 gr.

[7] = Triglycerides and cholesterol in rats on Nath diet, 25 and 50 mg/kg endoperitoneal; assay type: in vivo, male Sprague-Dawley rats; conditions: 1 week
Procedure: Treatment with 25 and 50 mg/kg/die endoperitoneal for 1 week on male
Sprague-Dawley rats of 150 gr.

[8] = Glycemia test at fast; assay type: in vivo, Male Sprague-Dawley rats; conditions: 200 mg/kg endoperitoneal, 2 hours before the test
Procedure: b. Glycemia test at fast: mg/100 ml blood in toto ± E.S.
Glycemia test at fast (Repetition): mg/100 ml blood in toto ± E.S.
as §5
Male Sprague-Dawley rats 150 grs.

[9] = test system: ulcer induced by aspirin; test: Anti-ulcerous activity, ulcer from aspirin (9-hydroxy sodium salt); assay type: in vivo, Female rats of the Wistar stock; conditions: for Ulcer scale (x ± Sx): controls 18.67 ± 3.11
Procedure: as §1
Female rats of the Wistar stock weighing 150-175 g are used. 24 hours before the start of the test the animals are made to fast, while they are allowed water at will.
Each test group consists of 12 animals. The aspirin is administered orally as a suspension (45 mg/ml of 0.5% carboxymethyl cellulose suspension, 1 ml per animal). The substance in question is administered 10 minutes before the administration of aspirin, and 21/2 hours after, each time in doses of […] of 100 mg/kg × 10 ml of distilled water. The animals are killed 5 hours after the administration of aspirin, the stomachs are extracted and with a stereomicroscope the number and size of the lesions is evaluated.

[10] = test system: smooth musculature (trachea of guinea-pig, fundal end stomach of rat, uterus of rat, portal vein of rat); test: General pharmacology: prostaglandino-similar activity on smooth muscle preparations; conditions: 100 μg/ml
Procedure: The compound C83 has been tested pharmacologically in order to show a probable prostaglandino-similar activity.
The compound C83 has been studied on the above parameters:
1. Trachea of guinea-pig.
2. Strips of fundal end stomach of rat.
5. Cardiovascular effects.
This compound has been tested at the concentration of 100 μg/ml in all preparations above mentioned.

With `CCCCCCC1CCC(O)C1CCCCCCC(=O)O` (centres unmarked) [Compound C83, 9-hydroxy-19,20-bis-nor-prostanoic acid sodium salt] the “correlation between dose and inhibition of ulcer surface area (in words)” value ([1]; FIG. 1) was “highly significant correlation between the dose and the inhibition of the surface area of the ulcer”, the ED50 ([1]; Rattus norvegicus, po, orally, calculated from the regression lines, read-out: DE 50 (inhibition of the surface area of the ulcer)) was 37 mg/kg and the “Surface area of the ulcer in % with respect to surface area of the stomach (x ± Sx)” value (shortened to “Surface area of the ulcer in %”) ([1]; orally, 2 × 2.5 mg/kg, controls 0.80 ± 3.26) was 0.57 ± 2.10%. The “Surface area of the ulcer in %” value ([1]; orally, 2 × 10 mg/kg, controls 3.60 ± 3.33) was 2.13 ± 2.22%, the “Surface area of the ulcer in %” value ([1]; orally, 2 × 25 mg/kg, controls 0.80 ± 3.26) was 0.33 ± 1.59% and the “Surface area of the ulcer in %” value ([1]; orally, 2 × 50 mg/kg, controls 3.57 ± 3.59) was 1.30 ± 1.74%. For the same compound, the “Surface area of the ulcer in %” value ([1]; orally, 2 × 100 mg/kg, controls 3.60 ± 3.33) was 1.97 ± 1.44%, the “Surface area of the ulcer in %” value ([1]; orally, 2 × 200 mg/kg, controls 3.57 ± 3.59, p<0.02) was 0.27 ± 0.53% and the “Rapidity ± E.S.” value ([2]; 1 hour before sacrifice) was 1.6 ± 0.2. The “Deepness (mm ± E.S.)” value ([2]; 1 hour before sacrifice) was 29.1 ± 3.6 mm, the “Rapidity ± E.S.” value ([2]; 2 hours before sacrifice) was 3.3 ± 0.7 and the “Deepness (mm ± E.S.)” value ([2]; 2 hours before sacrifice) was 67.3 ± 12.6 mm. For the same compound, the triglycerides ([3]; 25 mg/kg/die by mouth, Nath diet 134.9 ± 9.4, p<0.05 vs Nath diet) was 109.4 ± 6.9, the cholesterol ([3]; 25 mg/kg/die by mouth, Nath diet 333.3 ± 29.9) was 380.2 ± 77.8 and the cholesterol ([3]; 25 mg/kg/die endoperitoneal, controls 72.6 ± 4.3, Nath diet 333.3 ± 29.9, p<0.001 vs Nath diet) was 168.3 ± 26.8. For the same compound, the triglycerides ([3]; 25 mg/kg/die endoperitoneal, controls 96.9 ± 9.4, Nath diet 134.9 ± 9.4, p<0.05 vs Nath diet) was 91.9 ± 16.3, the LD50 [4] was ~3000 mg/kg and the LD50 [5] was “about 3000 mg/kg”. The “Time of Quick (± E.S.)” value ([6]; controls 25.3 ± 0.2, p < 0.001) was 29.0 ± 0.4 minutes/10, the “Time of Howel (± E.S.)” value ([6]; controls 84.5 ± 1.6, p < 0.001) was 98.8 ± 0.9 minutes/10 and the “Time of Quick (Repetition) (± E.S.)” value ([6]; repetition, controls 25.8 ± 0.4, p < 0.001) was 29.3 ± 0.3 minutes/100. The “Time of Howel (Repetition) (± E.S.)” value ([6]; repetition, controls 95.0 ± 1.5, p < 0.001) was 118.8 ± 2.4 minutes/100, the cholesterol ([7]; 25 mg/kg/die endoperitoneal, controls 64.4 ± 2.8, Nath diet 180.0 ± 15.8, p<0.01 vs Nath diet) was 108.3 ± 13.9 and the triglycerides ([7]; 25 mg/kg/die endoperitoneal, controls 91.1 ± 13.5, Nath diet 135.2 ± 22.8) was 81.5 ± 13.3. For the same compound, the triglycerides ([7]; 50 mg/kg/die endoperitoneal, Nath diet 135.2 ± 22.8, p<0.01 vs Nath diet) was 49.1 ± 6.1, the cholesterol ([7]; 50 mg/kg/die endoperitoneal, Nath diet 180.0 ± 15.8, p<0.001 vs Nath diet) was 101.8 ± 4.4 and the “Glycemia at fast (± E.S.)” value ([8]; controls 63.8 ± 4.1, p < 0.001) was 99.3 ± 2.7 mg/100 ml blood in toto. The “Glycemia at fast (Repetition) (± E.S.)” value ([8]; repetition, controls 81.1 ± 3.5, p < 0.01) was 121.4 ± 9.8 mg/100 ml blood in toto, the “Ulcer scale (x ± Sx)” value ([9]; 2 × 10 mg/kg, p<0.001) was 4.83 ± 1.09 and the “Ulcer scale (x ± Sx)” value ([9]; 2 × 100 mg/kg, p<0.05) was 8.92 ± 1.91. For the same compound, the “mitigation of ulcerating effect of aspirin (in words)” value ([9]; both doses) was “considerably mitigates the ulcerating effect of aspirin” and the “action on smooth musculature” value [10] was “clear prolonged action on muscle on the different kinds of smooth musculature”.
